# From PubChem BioAssay (NCI)
#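 Compound exposure: 48 hours, 5 concentrations, 96-well plates. GI50 marks 50% less growth. TGI marks complete inhibition of growth.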
# How the values were obtained:
# Assay in all cases: NCI-60 cell line screen, 48 h
# [1] = system: 786-0 renal
# [2] = system: A498 renal
# [3] = system: A549 NSCLC
# [4] = system: ACHN renal
# [5] = system: BT-549 breast
# [6] = system: CAKI-1 renal
# [7] = system: CCRF-CEM leukemia
# [8] = system: COLO 205 colon
# [9] = system: DU-145 prostate
# [10] = system: EKVX NSCLC
# [11] = system: HCC-2998 colon
# [12] = system: HCT-116 colon
# [13] = system: HCT-15 colon
# [14] = system: HL-60(TB) leukemia
# [15] = system: HOP-62 NSCLC
# [16] = system: HOP-92 NSCLC
# [17] = system: HS 578T breast
# [18] = system: HT29 colon
# [19] = system: IGROV1 ovarian
# [20] = system: K-562 leukemia
# [21] = system: KM12 colon
# [22] = system: LOX IMVI melanoma
# [23] = system: M14 melanoma
# [24] = system: MALME-3M melanoma
# [25] = system: MCF7 breast
# [26] = system: MDA-MB-231 breast
# [27] = system: MDA-MB-435
# [28] = system: MOLT-4 leukemia
# [29] = system: NCI-H226 lung
# [30] = system: NCI-H23 lung
# [31] = system: NCI-H460 lung
# [32] = system: NCI-H522 lung
# [33] = system: NCI/ADR-RES ovarian
# [34] = system: OVCAR-3 ovarian
# [35] = system: OVCAR-4 ovarian
# [36] = system: OVCAR-5 ovarian
# [37] = system: OVCAR-8 ovarian
# [38] = system: PC-3 prostate
# [39] = system: RPMI-8226 leukemia
# [40] = system: RXF 393 renal
# [41] = system: SF-268 CNS
# [42] = system: SF-295 CNS
# [43] = system: SF-539 CNS
# [44] = system: SK-MEL-2 melanoma
# [45] = system: SK-MEL-28 melanoma
# [46] = system: SK-MEL-5 melanoma
# [47] = system: SK-OV-3 ovarian
# [48] = system: SN12C renal
# [49] = system: SNB-19 CNS
# [50] = system: SNB-75 CNS
# [51] = system: SR leukemia
# [52] = system: SW-620 colon
# [53] = system: T-47D breast
# [54] = system: TK-10 renal
# [55] = system: U251 CNS
# [56] = system: UACC-257 melanoma
# [57] = system: UACC-62 melanoma
# [58] = system: UO-31 renal
compound,measurement,setting,value
Cc1cc(I)cc(CN(C)CCN2CCOCC2)c1O,GI50,[1],> 100 µM
same,TGI,[1],> 100 µM
same,GI50,[2],43.3 µM
same,TGI,[2],> 96.3 µM
same,GI50,[3],54.6 µM
same,TGI,[3],> 100 µM
same,GI50,[4],60.2 µM
same,TGI,[4],> 100 µM
same,GI50,[5],43.7 µM
same,TGI,[5],> 100 µM
same,GI50,[6],> 61.4 µM
same,TGI,[6],> 100 µM
same,GI50,[7],0.87 µM
same,GI50,[8],71.6 µM
same,TGI,[8],> 100 µM
same,GI50,[9],61 µM
same,TGI,[9],> 100 µM
same,GI50,[10],47.1 µM
same,TGI,[10],> 100 µM
same,GI50,[11],> 80.8 µM
same,TGI,[11],> 100 µM
same,GI50,[12],30.4 µM
same,TGI,[12],> 100 µM
same,GI50,[13],38.8 µM
same,TGI,[13],> 100 µM
same,GI50,[14],25.8 µM
same,TGI,[14],66.6 µM
same,GI50,[15],64.7 µM
same,TGI,[15],> 100 µM
same,GI50,[16],38 µM
same,TGI,[16],> 100 µM
same,GI50,[17],23.4 µM
same,TGI,[17],> 72.5 µM
same,GI50,[18],33.4 µM
same,TGI,[18],> 100 µM
same,GI50,[19],37.2 µM
same,TGI,[19],> 100 µM
same,GI50,[20],28.4 µM
same,TGI,[20],> 100 µM
same,GI50,[21],44.5 µM
same,TGI,[21],> 100 µM
same,GI50,[22],65 µM
same,TGI,[22],> 100 µM
same,GI50,[23],79.3 µM
same,TGI,[23],> 100 µM
same,GI50,[24],> 78.8 µM
same,TGI,[24],> 100 µM
same,GI50,[25],44.1 µM
same,TGI,[25],> 100 µM
same,GI50,[26],97.9 µM
same,TGI,[26],> 100 µM
same,GI50,[27],67.3 µM
same,TGI,[27],> 100 µM
same,GI50,[28],35.7 µM
same,TGI,[28],> 100 µM
same,GI50,[29],> 76.9 µM
same,TGI,[29],> 100 µM
same,GI50,[30],62.7 µM
same,TGI,[30],> 100 µM
same,GI50,[31],43.4 µM
same,TGI,[31],> 100 µM
same,GI50,[32],79 µM
same,TGI,[32],> 100 µM
same,GI50,[33],59.8 µM
same,TGI,[33],> 100 µM
same,GI50,[34],49.9 µM
same,TGI,[34],> 100 µM
same,GI50,[35],53.2 µM
same,TGI,[35],> 100 µM
same,GI50,[36],> 100 µM
same,TGI,[36],> 100 µM
same,GI50,[37],75.1 µM
same,TGI,[37],> 100 µM
same,GI50,[38],34.9 µM
same,TGI,[38],> 100 µM
same,GI50,[39],30.2 µM
same,TGI,[39],> 100 µM
same,GI50,[40],> 88 µM
same,TGI,[40],> 100 µM
same,GI50,[41],59.5 µM
same,TGI,[41],> 100 µM
same,GI50,[42],29.8 µM
same,TGI,[42],> 82.3 µM
same,GI50,[43],> 100 µM
same,TGI,[43],> 100 µM
same,GI50,[44],> 100 µM
same,TGI,[44],> 100 µM
same,GI50,[45],> 78.1 µM
same,TGI,[45],> 100 µM
same,GI50,[46],35.3 µM
same,TGI,[46],> 85.6 µM
same,GI50,[47],> 100 µM
same,TGI,[47],> 100 µM
same,GI50,[48],> 68 µM
same,TGI,[48],> 100 µM
same,GI50,[49],> 87.1 µM
same,TGI,[49],> 100 µM
same,GI50,[50],53.5 µM
same,TGI,[50],> 100 µM
same,GI50,[51],12.5 µM
same,TGI,[51],97.7 µM
same,GI50,[52],55.2 µM
same,TGI,[52],> 100 µM
same,GI50,[53],27.5 µM
same,TGI,[53],> 100 µM
same,GI50,[54],> 76.8 µM
same,TGI,[54],> 100 µM
same,GI50,[55],49.7 µM
same,TGI,[55],> 100 µM
same,GI50,[56],99.5 µM
same,TGI,[56],> 100 µM
same,GI50,[57],> 66.1 µM
same,TGI,[57],> 100 µM
same,GI50,[58],45.2 µM
same,TGI,[58],> 100 µM
